# Test results: patent EP1026165A1, “O-substituted Hydroxycoumaranone derivatives as antitumor and antimetastatic agents” (Roche Diagnostics GmbH, priority 1999, dated 2000)
# Target: uPAR (Homo sapiens, UniProt Q03405)
# Test: BIO-R4 assay (ELISA test): inhibition of uPA binding to its specific receptor uPAR
# Settings: Inhibition of uPA binding to the specific uPAR receptor (BIO-R4); detection at 405 nm
# Experimental: The compounds of the invention were tested (ELISA test) as inhibitors of human urokinase (uPA) binding to its specific receptor uPAR mAk (BIO-R4), according to the procedure described in Biol. Chem. Hoppe-Seyler, 376, 587-94 (1995) by Rettenberger et al. The assays are performed in Microtiterplates (96 wells). The following solutions are used: • washing buffer: PBS-buffer (without Mg^2+ and Ca^2+) + 0.05% Tween 20; • incubation buffer (IP): 1% skimmed milk powder in PBS-buffer (without Mg^2+ and Ca^2+); • BIO-R4 solution: 50 ng/well (0.5 µg/ml 100 µl/well) in IP; • uPAR solution: 3 ng/well (30 ng/ml; 100 µl/well) in PBS-buffer (without Mg^2+ and Ca^2+); • blocking solution: 1% skimmed milk powder in washing buffer (dissolved at 37°C); • uPA solution: 0.25 ng/well (5 ng/ml; 50 µl/well) in IP.
# Detection solutions (per microtiterplate):
# • (1) 6 ml (100 mM Tris-Cl pH 7.2 + 0.15% Tween 80) + 1.5 ml (10 µg) plasminogen in aqua bidest; • (2) 6 ml (100 mM Tris-Cl pH 7.2 + 0.15% Tween 80) + 1.5 ml (7.5 mg) chromozyme PL in aqua bidest. […]
# For detection, the following procedure is used: Incubation with 50 µl each of detection solution (1) and (2) at room temperature. After 20 minutes a yellow colour will be visible (the positive control reads an extinction of 1 after 45-60 minutes). The detection is performed at 405 nm (reference is 490 nm) using a Dynatech MR 7000 ELISA reader. […]
# Chain of uPAR (Q03405 23-305 limits assumed): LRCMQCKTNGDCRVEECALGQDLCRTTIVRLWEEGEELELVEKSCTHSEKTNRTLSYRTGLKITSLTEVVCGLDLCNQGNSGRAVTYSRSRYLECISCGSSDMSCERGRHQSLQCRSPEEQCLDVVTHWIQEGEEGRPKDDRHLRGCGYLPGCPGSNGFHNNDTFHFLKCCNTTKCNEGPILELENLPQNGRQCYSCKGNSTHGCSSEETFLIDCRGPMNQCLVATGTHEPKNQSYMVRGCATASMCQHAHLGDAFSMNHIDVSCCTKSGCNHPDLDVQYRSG
row,SMILES,IC50
1,"CC(C)=C1Oc2cccc(OCC#CCN3CCC(NC(=O)c4ccc(Cl)c(S(N)(=O)=O)c4)CC3)c2C1=O [Example 4, 4-{4-[4-(3-aminosulfonyl-4-chlorobenzamido)piperidino]but-2-ynoxy}-2-isopropylidenecoumaran-3-one]",1790 nM
2,"CC(C)=C1Oc2cccc(OCc3cccc(CN4CCC(NC(=O)c5ccc(Cl)c(Cl)c5)CC4)c3)c2C1=O [Example 11, 4-{3-[4-(3,4-dichlorobenzamido)piperidinomethyl]phenylmethoxy}-2-isopropylidenecoumaran-3-one]",1410 nM
